# In ChEMBL document CHEMBL3507680, “University of Dundee, Gates Library screen for HepG2 cell viability”:
# Experiment: Human HepG2 cell viability assay in 384 well format
# Format: toxicity, cell-based
# Set-up: dose 125 nL, time 70.5 hour; concentration not given beside the values
# Settings: HepG2 cells, read-out: Inhibition
row,SMILES,cytotoxicity at 70.5 h [%]
1,NC(=O)NCC1CCCCN1C(=O)c1ccc(Cl)s1 (configuration not stated),-8.02
2,Cc1nccn1-c1cc(CNC(=O)C2CCC(=O)NC2)ccn1 (configuration not stated),12.3
3,Nc1ncc(C(=O)N2CCCC(N)CC2)c(-c2ccccc2)n1 (configuration not stated),7.49
4,CCCc1nc(CNc2ccc(F)c(F)c2)no1,14.6
5,CCCc1n[nH]c(C2CN(Cc3ncc[nH]3)CCO2)n1 (configuration not stated),4.94
6,O=C(CN1CCCC1c1cccs1)N1CCc2sccc2C1 (configuration not stated),-0.311
7,FC1(F)CCNCC12CCN(c1ncccn1)C2 (configuration not stated),-4.34
8,Cc1ccc(O[C@@H]2C[C@H]3CN(C(=O)c4cccnc4)CCN3C2)cc1,9.15
9,O=S(=O)(NCC1(c2cccs2)CCCC1)c1cccnc1,-4.26
10,CC(C#N)CNS(=O)(=O)c1ccc(F)c(Br)c1 (configuration not stated),-7.42
11,CN(C)c1cc(C2CCCN(S(=O)(=O)C3CCCC3)C2)ccn1 (configuration not stated),-7.46
12,COCc1noc(CN2CCC3(CC2)[C@H](O)C[C@@H]3OC)n1,-5.38
13,Cc1nn(C)c2cnn(Cc3ccc(C(=O)NC4CC4)o3)c12,-1.57
14,CC(C)c1ncc2c(n1)CN(CC(=O)Nc1ccncc1)CC2,-7.98
15,CCCOc1cc(C)ccc1NC(=O)N(C)Cc1cnn(C)c1,-4.07
16,Cc1cc(F)cc2c(N3CCS(=O)(=O)CC3)c(C#N)cnc12,0.465
17,O[C@@]1(c2ccccn2)CC[C@H]2CN(Cc3cccc(Cl)c3Cl)C[C@H]21,-10.2
18,O=C(Nc1cccnc1)Nc1cccc(CN2CCC(O)CC2)c1,10.2
19,NC(=O)N1CCc2cc(C(=O)O)c(-c3ccsc3)nc2CC1,-6.4

row,SMILES,cytotoxicity at 70.5 h [%]
1,CC(C)C(O)CNC(=O)Nc1cnn(C(C)C)c1 (configuration not stated),-8.43
2,c1ccc(CN2CCCn3nnc(COc4ccccn4)c3C2)nc1,-11.2
3,CCC(NC(=O)C1CCN(S(C)(=O)=O)CC1)c1ccc(OC)c(C)c1 (configuration not stated),-9.2
4,CSc1ncccc1C(=O)N(C)C(C)Cc1ccccn1 (configuration not stated),-18.1
5,O=C(CCc1ccccc1)N1CCn2cc(CN3CCCC3)nc2C1,-11.7
6,CC(C)c1cc(NCC2(Cn3cccn3)CC2)nc(N)n1,-0.462
7,Cc1ccoc1C(=O)N1CCCC(c2cc(C(F)(F)F)[nH]n2)C1 (configuration not stated),-8.09
8,CC(C)N1CCO[C@H]2CN(C(=O)Cc3cccs3)C[C@H]21,-3.28
9,c1coc(-c2noc(CN3CCC(c4ccn[nH]4)CC3)n2)c1,-8.33
10,CC(C)Nc1nc2c(c(N(C)C)n1)CCN(C(=O)c1cc[nH]n1)CC2,-10.4
11,CCc1nc(CN(C)C(=O)c2ccc(OCCCOC)nc2)cs1,-7.45
12,CN(Cc1cnn(C)c1)S(=O)(=O)N1CCCCC1,-5.36
13,c1c[nH]c2nc(C3CCNC3)nc-2c1 (configuration not stated),-17.5
14,Cc1nccc(C2CCCN(C(=O)c3cncnc3)C2)n1 (configuration not stated),-5.03
15,CCn1nc(C)c2nc(C(C)C)nc(N(C)Cc3ccco3)c21,-17
16,Cc1nn(C)c2cnn(Cc3ccc(C(=O)NCC4CCCO4)o3)c12 (configuration not stated),-5.42
17,CC(N(C)Cc1nc2c(cnn2C)c(=O)[nH]1)C(C)(C)C (configuration not stated),21
18,CCc1nnc2n1CCN(C(=O)c1cc(Br)c[nH]1)C2,-5.11
19,Cc1nc(C2CCN(C(=O)c3ccc(Cl)s3)CC2)cc(=O)[nH]1,-6.29

row,SMILES,cytotoxicity at 70.5 h [%]
1,Cc1cccc(CN2C(=O)CCC23CCN(Cc2ccoc2)CC3)n1,-0.993
2,COc1ccc(NC(=O)c2nc(C)sc2C(C)C)cn1,-9.52
3,CS(=O)(=O)c1ccc(CNC(=O)NCc2cc[nH]n2)cc1,-12.3
4,O=C(COc1cc(Cl)cc(Cl)c1)NCc1nncn1C1CC1,-8.34
5,CS(=O)(=O)NC[C@]12COC[C@H]1CN(C(=O)C1CC(F)(F)C1)C2,-2.39
6,CC(O)CN(C)C(=O)CCNC(=O)OC(C)(C)C (configuration not stated),-3.37
7,COc1ccc(C)cc1CN1CCCC1c1noc(C2CC2)n1 (configuration not stated),-1.93
8,CCN1CCCC1CN(CCN(C)C)S(=O)(=O)c1ccccc1C#N (configuration not stated),29.4
9,Cc1cc(C(=O)NCC(F)(F)F)c2c(C3CCNCC3)noc2n1,25.3
10,COc1ccc(CN(C)[C@@H]2CN(C(=O)c3cccn3C)C[C@H]2O)cc1,16.9
11,CN(Cc1cccs1)C(=O)Cn1cc(NC(=O)C(C)(C)C)cn1,-7.51
12,CC(C)(C)OC(=O)N1CCC[C@H](NCC2=CCCOC2)C1,-9.87
13,Cn1nnc2c1CCN(Cc1ccncc1)C2COCc1ccccc1 (configuration not stated),-6.13
14,Cc1nc2ccc(C(=O)N3C[C@@H](O)[C@H](N4CCOCC4)C3)cc2[nH]1,12
15,O=C([C@H]1C[C@H]2OCC[C@H]2N(Cc2ccccn2)C1)N1CCCCO1,-9.44
16,Cc1ccc(NC(=O)N2CCCN(C(N)=O)CC2)s1,7.8
17,O=c1cc(N2CCCC2)cnn1Cc1noc(C2CCCO2)n1 (configuration not stated),7.8
18,CS(=O)(=O)c1cc(Cl)cnc1C1CCN(C(=O)C2CCCO2)CC1 (configuration not stated),-5.11
19,Cn1cc(CN2CCC(F)(F)C3(CCN(c4ncccn4)C3)C2)cn1 (configuration not stated),-12.2
